Test results as given in the supplement of paper PMC10307832.

Columns and labels:
Assay in all cases: relative viability (nuclei count vs DMSO), 5 days (fraction); higher = more cells survive
SK-MES-1 = system: SK-MES-1
How it was run: (§1)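 Relative viability equals treated-well nuclei counts divided by vehicle-well nuclei counts. Counts came from 4× images of lung cancer cell lines grown in 1536-well plates for 5 days after pin-tool dosing on the day after seeding. Dosing used one drug alone or a fixed anchor-drug dose plus five library-drug doses (not always all listed) in √10 steps, and values are medians of duplicate plates.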

NCI-H2170 = system: NCI-H2170
How it was run: as §1

NCI-H647 = system: NCI-H647
How it was run: as §1

HCC-827 = system: HCC-827
How it was run: as §1

NCI-H1437 = system: NCI-H1437
How it was run: as §1

NCI-H1395 = system: NCI-H1395
How it was run: as §1

NCI-H1734 = system: NCI-H1734
How it was run: as §1

SK-LU-1 = system: SK-LU-1
How it was run: as §1

NCI-H1993 = system: NCI-H1993
How it was run: as §1

NCI-H2342 = system: NCI-H2342
How it was run: as §1

HARA = system: HARA
How it was run: as §1

HCC-366 = system: HCC-366
How it was run: as §1

NCI-H661 = system: NCI-H661
How it was run: as §1

NCI-H1355 = system: NCI-H1355
How it was run: as §1

NCI-H2009 = system: NCI-H2009
How it was run: as §1

NCI-H2087 = system: NCI-H2087
How it was run: as §1

LOU-NH91 = system: LOU-NH91
How it was run: as §1

EKVX = system: EKVX
How it was run: as §1

NCI-H2405 = system: NCI-H2405
How it was run: as §1

BEN = system: BEN
How it was run: as §1

O=c1cc(-c2cccc3c2Sc2ccccc2S3)oc(N2CCOCC2)c1 + COc1cc2c(Oc3ccc(NC(=O)C4(C(=O)Nc5ccc(F)cc5)CC4)cc3F)ccnc2cc1OCCCN1CCOCC1 [Foretinib] (partner 0.25 µM)
relative viability (SK-MES-1; first compound 0.08 µM): 0.952 | relative viability (SK-MES-1; first compound 0.253 µM): 1.13 | relative viability (SK-MES-1; first compound 0.8 µM): 0.645 | relative viability (SK-MES-1; first compound 2.53 µM): 0.611 | relative viability (SK-MES-1; first compound 8 µM): 0.775 | relative viability (NCI-H2170; first compound 0.08 µM): 1.03 | relative viability (NCI-H2170; first compound 0.253 µM): 1.05 | relative viability (NCI-H2170; first compound 0.8 µM): 1.08 | relative viability (NCI-H2170; first compound 2.53 µM): 0.999 | relative viability (NCI-H2170; first compound 8 µM): 0.983 | relative viability (NCI-H647; first compound 0.08 µM): 1.15 | relative viability (NCI-H647; first compound 0.253 µM): 1.35 | relative viability (NCI-H647; first compound 0.8 µM): 1.25 | relative viability (NCI-H647; first compound 2.53 µM): 1.21 | relative viability (NCI-H647; first compound 8 µM): 1.29 | relative viability (HCC-827; first compound 0.08 µM): 0.94 | relative viability (HCC-827; first compound 0.253 µM): 1.12 | relative viability (HCC-827; first compound 0.8 µM): 1.07 | relative viability (HCC-827; first compound 2.53 µM): 0.863 | relative viability (HCC-827; first compound 8 µM): 1.02 | relative viability (NCI-H1437; first compound 0.08 µM): 1.27 | relative viability (NCI-H1437; first compound 0.253 µM): 1.41 | relative viability (NCI-H1437; first compound 0.8 µM): 1.32 | relative viability (NCI-H1437; first compound 2.53 µM): 1.23 | relative viability (NCI-H1437; first compound 8 µM): 1.33 | relative viability (NCI-H1395; first compound 0.08 µM): 0.934 | relative viability (NCI-H1395; first compound 0.253 µM): 0.887 | relative viability (NCI-H1395; first compound 0.8 µM): 1.07 | relative viability (NCI-H1395; first compound 2.53 µM): 0.938 | relative viability (NCI-H1395; first compound 8 µM): 1.09 | relative viability (NCI-H1734; first compound 0.08 µM): 0.788 | relative viability (NCI-H1734; first compound 0.253 µM): 1.04 | relative viability (NCI-H1734; first compound 0.8 µM): 0.99 | relative viability (NCI-H1734; first compound 8 µM): 0.94 | relative viability (SK-LU-1; first compound 0.08 µM): 0.787 | relative viability (SK-LU-1; first compound 0.253 µM): 1.05 | relative viability (SK-LU-1; first compound 0.8 µM): 0.906 | relative viability (SK-LU-1; first compound 2.53 µM): 0.842 | relative viability (SK-LU-1; first compound 8 µM): 0.831 | relative viability (NCI-H1993; first compound 0.08 µM): 0.705 | relative viability (NCI-H1993; first compound 0.253 µM): 0.796 | relative viability (NCI-H1993; first compound 0.8 µM): 0.586 | relative viability (NCI-H1993; first compound 2.53 µM): 0.75 | relative viability (NCI-H1993; first compound 8 µM): 0.68 | relative viability (NCI-H2342; first compound 0.08 µM): 0.996 | relative viability (NCI-H2342; first compound 0.253 µM): 1.04 | relative viability (NCI-H2342; first compound 0.8 µM): 0.916 | relative viability (NCI-H2342; first compound 2.53 µM): 0.917 | relative viability (NCI-H2342; first compound 8 µM): 1.11 | relative viability (HARA; first compound 0.08 µM): 0.934 | relative viability (HARA; first compound 0.253 µM): 0.956 | relative viability (HARA; first compound 0.8 µM): 0.961 | relative viability (HARA; first compound 2.53 µM): 0.898 | relative viability (HARA; first compound 8 µM): 0.777 | relative viability (HCC-366; first compound 0.08 µM): 0.911 | relative viability (HCC-366; first compound 0.253 µM): 0.89 | relative viability (HCC-366; first compound 0.8 µM): 0.635 | relative viability (HCC-366; first compound 2.53 µM): 0.903 | relative viability (HCC-366; first compound 8 µM): 1.03 | relative viability (NCI-H661; first compound 0.08 µM): 1.02 | relative viability (NCI-H661; first compound 0.253 µM): 1.02 | relative viability (NCI-H661; first compound 0.8 µM): 0.92 | relative viability (NCI-H661; first compound 2.53 µM): 0.952 | relative viability (NCI-H661; first compound 8 µM): 1 | relative viability (NCI-H1355; first compound 0.08 µM): 0.999 | relative viability (NCI-H1355; first compound 0.253 µM): 1.12 | relative viability (NCI-H1355; first compound 0.8 µM): 0.861 | relative viability (NCI-H1355; first compound 2.53 µM): 0.977 | relative viability (NCI-H1355; first compound 8 µM): 0.926 | relative viability (NCI-H2009; first compound 0.08 µM): 1.23 | relative viability (NCI-H2009; first compound 0.253 µM): 1.21 | relative viability (NCI-H2009; first compound 0.8 µM): 1.15 | relative viability (NCI-H2009; first compound 2.53 µM): 1.12 | relative viability (NCI-H2009; first compound 8 µM): 1.19 | relative viability (NCI-H2087; first compound 0.08 µM): 0.976 | relative viability (NCI-H2087; first compound 0.253 µM): 1.13 | relative viability (NCI-H2087; first compound 0.8 µM): 1.3 | relative viability (NCI-H2087; first compound 2.53 µM): 1.23 | relative viability (NCI-H2087; first compound 8 µM): 1.19 | relative viability (LOU-NH91; first compound 0.08 µM): 0.976 | relative viability (LOU-NH91; first compound 0.253 µM): 0.906 | relative viability (LOU-NH91; first compound 0.8 µM): 0.833 | relative viability (LOU-NH91; first compound 2.53 µM): 0.838 | relative viability (LOU-NH91; first compound 8 µM): 0.967 | relative viability (EKVX; first compound 0.08 µM): 0.785 | relative viability (EKVX; first compound 0.253 µM): 0.892 | relative viability (EKVX; first compound 0.8 µM): 0.751 | relative viability (EKVX; first compound 2.53 µM): 0.734 | relative viability (EKVX; first compound 8 µM): 1.33 | relative viability (NCI-H2405; first compound 0.08 µM): 0.998 | relative viability (NCI-H2405; first compound 0.253 µM): 1.09 | relative viability (NCI-H2405; first compound 0.8 µM): 0.975 | relative viability (NCI-H2405; first compound 2.53 µM): 0.938 | relative viability (NCI-H2405; first compound 8 µM): 1.04 | relative viability (BEN; first compound 0.08 µM): 0.485 | relative viability (BEN; first compound 0.253 µM): 0.662 | relative viability (BEN; first compound 0.8 µM): 0.674 | relative viability (BEN; first compound 2.53 µM): 0.578 | relative viability (BEN; first compound 8 µM): 0.97
